Laboratory results as given in ChEMBL document CHEMBL3046897, “Synthesis of 3-{4-[4-dimethylamino-6-(4-methyl-2-oxo-2H-chromen-7-yloxy)-[1,3,5]triazin-2-ylamino]-phenyl}-2-phenyl-5-(4-pyridin-2-yl-piperazin-1-ylmethyl)-thiazolidin-4-one and their biological evaluation” (2012).
≈ marks a conversion by molar mass, not a printed value.

Columns and labels:
Format in all cases: functional
Shigella flexneri [1] = assay: Antibacterial activity against Shigella flexneri after 24 hr by agar streak dilution method
Proteus vulgaris [2] = assay: Antibacterial activity against Proteus vulgaris after 24 hr by agar streak dilution method
Salmonella typhi [3] = assay: Antibacterial activity against Salmonella enterica subsp. enterica serovar Typhi after 24 hr by agar streak dilution method
Klebsiella pneumoniae [4] = assay: Antibacterial activity against Klebsiella pneumoniae after 24 hr by agar streak dilution method
Pseudomonas aeruginosa [5] = assay: Antibacterial activity against Pseudomonas aeruginosa after 24 hr by agar streak dilution method
Shigella flexneri [6] = assay: Antibacterial activity against Shigella flexneri at 100 ug/disc after 24 hr by paper disk diffusion method; settings: read-out: IZ
Proteus vulgaris [7] = assay: Antibacterial activity against Proteus vulgaris at 100 ug/disk after 24 hr by paper disk diffusion method; settings: read-out: IZ
Salmonella typhi [8] = assay: Antibacterial activity against Salmonella enterica subsp. enterica serovar Typhi at 100 ug/disk after 24 hr by paper disk diffusion method; settings: read-out: IZ
Klebsiella pneumoniae [9] = assay: Antibacterial activity against Klebsiella pneumoniae at 100 ug/disk after 24 hr by paper disk diffusion method; settings: read-out: IZ
Pseudomonas aeruginosa [10] = assay: Antibacterial activity against Pseudomonas aeruginosa at 100 ug/disk after 24 hr by paper disk diffusion method; settings: read-out: IZ
Escherichia coli [11] = assay: Antibacterial activity against Escherichia coli at 100 ug/disk after 24 hr by paper disk diffusion method; settings: read-out: IZ
Bacillus subtilis [12] = assay: Antibacterial activity against Bacillus subtilis after 24 hr by agar streak dilution method
Staphylococcus aureus [13] = assay: Antibacterial activity against Staphylococcus aureus after 24 hr by agar streak dilution method
Bacillus subtilis [14] = assay: Antibacterial activity against Bacillus subtilis at 100 ug/disk after 24 hr by paper disk diffusion method; settings: read-out: IZ
Staphylococcus aureus [15] = assay: Antibacterial activity against Staphylococcus aureus at 100 ug/disc after 24 hr by paper disk diffusion method; settings: read-out: IZ
Candida albicans [16] = assay: Antifungal activity against Candida albicans at 100 ug/disk after 48 hr by paper disk diffusion method; settings: read-out: IZ
Aspergillus clavatus [17] = assay: Antifungal activity against Aspergillus clavatus at 100 ug/disc after 48 hr by paper disk diffusion method; settings: read-out: IZ
Aspergillus fumigatus [18] = assay: Antifungal activity against Aspergillus fumigatus at 100 ug/disc after 48 hr by paper disk diffusion method; settings: read-out: IZ
Aspergillus niger [19] = assay: Antifungal activity against Aspergillus niger at 100 ug/disk after 48 hr by paper disk diffusion method; settings: read-out: IZ
Candida albicans [20] = assay: Antifungal activity against Candida albicans after 48 hr by agar streak dilution method
Aspergillus clavatus [21] = assay: Antifungal activity against Aspergillus clavatus after 48 hr by agar streak dilution method
Aspergillus niger [22] = assay: Antifungal activity against Aspergillus niger after 48 hr by agar streak dilution method
Escherichia coli [23] = assay: Antibacterial activity against Escherichia coli after 24 hr by agar streak dilution method
Aspergillus fumigatus [24] = assay: Antifungal activity against Aspergillus fumigatus after 48 hr by agar streak dilution method

| Structure (SMILES) | MIC (Shigella flexneri [1]) [µg/mL] | MIC (Proteus vulgaris [2]) [µg/mL] | MIC (Salmonella typhi [3]) [µg/mL] | MIC (Klebsiella pneumoniae [4]) [µg/mL] | MIC (Pseudomonas aeruginosa [5]) [µg/mL] | zone of inhibition at 100 µg/disc (Shigella flexneri [6]) [mm] | zone of inhibition at 100 µg/disc (Proteus vulgaris [7]) [mm] | zone of inhibition at 100 µg/disc (Salmonella typhi [8]) [mm] | zone of inhibition at 100 µg/disc (Klebsiella pneumoniae [9]) [mm] | zone of inhibition at 100 µg/disc (Pseudomonas aeruginosa [10]) [mm] | zone of inhibition at 100 µg/disc (Escherichia coli [11]) [mm] | MIC (Bacillus subtilis [12]) [µg/mL] | MIC (Staphylococcus aureus [13]) [µg/mL] | zone of inhibition at 100 µg/disc (Bacillus subtilis [14]) [mm] | zone of inhibition at 100 µg/disc (Staphylococcus aureus [15]) [mm] | zone of inhibition at 100 µg/disc (Candida albicans [16]) [mm] | zone of inhibition at 100 µg/disc (Aspergillus clavatus [17]) [mm] | zone of inhibition at 100 µg/disc (Aspergillus fumigatus [18]) [mm] | zone of inhibition at 100 µg/disc (Aspergillus niger [19]) [mm] | MIC (Candida albicans [20]) [µg/mL] | further results |
| --- | --- | --- | --- | --- | --- | --- | --- | --- | --- | --- | --- | --- | --- | --- | --- | --- | --- | --- | --- | --- | --- |
| O=C(O)c1cn(C2CC2)c2cc(N3CCNCC3)c(F)cc2c1=O [CIPROFLOXACIN] | ≤ 3 | 1 (≈ 3.02 µM) | 1 (≈ 3.02 µM) | 1 (≈ 3.02 µM) | 1 (≈ 3.02 µM) | 32 | 31 | 30 | 33 | 33 | 32 | 1 (≈ 3.02 µM) | 1 (≈ 3.02 µM) | 31 | 30 |  |  |  |  |  |  |
| Cc1cc(=O)oc2cc(Oc3nc(Nc4ccc(N5C(=O)C(CN6CCN(c7ccccn7)CC6)SC5c5ccc(Cl)cc5Cl)cc4)nc(N(C)C)n3)ccc12 (centres undefined) | 25 (≈ 30.8 µM) | 12.5 (≈ 15.4 µM) | 50 (≈ 61.7 µM) | 25 (≈ 30.8 µM) | 50 (≈ 61.7 µM) | 20 | 21 | 18 | 21 | 18 | 19 | 12.5 (≈ 15.4 µM) | 25 (≈ 30.8 µM) | 23 | 22 | 20 | 23 | 19 | 18 | 50 (≈ 61.7 µM) | MIC (Aspergillus clavatus [21]): 25 µg/mL (≈ 30.8 µM); MIC (Aspergillus niger [22]): 50 µg/mL (≈ 61.7 µM); MIC (Escherichia coli [23]): 25 µg/mL (≈ 30.8 µM); MIC (Aspergillus fumigatus [24]): 50 µg/mL (≈ 61.7 µM) |
| Cc1cc(=O)oc2cc(Oc3nc(Nc4ccc(N5C(=O)C(CN6CCN(c7ccccn7)CC6)SC5c5cccc(F)c5)cc4)nc(N(C)C)n3)ccc12 (centres undefined) | 12.5 (≈ 16.5 µM) | 50 (≈ 65.8 µM) | 25 (≈ 32.9 µM) | 50 (≈ 65.8 µM) | 25 (≈ 32.9 µM) | 25 | 21 | 23 | 20 | 21 | 28 | 12.5 (≈ 16.5 µM) | 25 (≈ 32.9 µM) | 21 | 19 | 21 | 25 | 19 | 23 | 12.5 (≈ 16.5 µM) | MIC (Aspergillus clavatus [21]): 12.5 µg/mL (≈ 16.5 µM); MIC (Aspergillus niger [22]): 12.5 µg/mL (≈ 16.5 µM); MIC (Escherichia coli [23]): 6.25 µg/mL (≈ 8.23 µM); MIC (Aspergillus fumigatus [24]): 25 µg/mL (≈ 32.9 µM) |
| Cc1cc(=O)oc2cc(Oc3nc(Nc4ccc(N5C(=O)CSC5c5ccc(Cl)c(Cl)c5)cc4)nc(N(C)C)n3)ccc12 (centres undefined) | 50 (≈ 78.7 µM) | 100 (≈ 157 µM) | 50 (≈ 78.7 µM) | 100 (≈ 157 µM) | 50 (≈ 78.7 µM) | 18 | 17 | 18 | 15 | 19 | 14 | 50 (≈ 78.7 µM) | 100 (≈ 157 µM) | 18 | 16 | 13 | 18 | 15 | 12 | 100 (≈ 157 µM) | MIC (Aspergillus clavatus [21]): 50 µg/mL (≈ 78.7 µM); MIC (Aspergillus niger [22]): 100 µg/mL (≈ 157 µM); MIC (Escherichia coli [23]): 100 µg/mL (≈ 157 µM); MIC (Aspergillus fumigatus [24]): 100 µg/mL (≈ 157 µM) |
| Cc1cc(=O)oc2cc(Oc3nc(Nc4ccc(N5C(=O)C(CN6CCN(c7ccccn7)CC6)SC5c5ccc([N+](=O)[O-])cc5)cc4)nc(N(C)C)n3)ccc12 (centres undefined) | 100 (≈ 127 µM) | 100 (≈ 127 µM) | 50 (≈ 63.5 µM) | 100 (≈ 127 µM) | 100 (≈ 127 µM) | 14 | 10 | 18 | 15 | 13 | 16 | 100 (≈ 127 µM) | 100 (≈ 127 µM) | 13 | 16 | 13 | 20 | 18 | 15 | 100 (≈ 127 µM) | MIC (Aspergillus clavatus [21]): 50 µg/mL (≈ 63.5 µM); MIC (Aspergillus niger [22]): 100 µg/mL (≈ 127 µM); MIC (Escherichia coli [23]): 100 µg/mL (≈ 127 µM); MIC (Aspergillus fumigatus [24]): 50 µg/mL (≈ 63.5 µM) |
| CC(=O)N1CCN(c2ccc(OCC3COC(Cn4ccnc4)(c4ccc(Cl)cc4Cl)O3)cc2)CC1 (centres undefined) [KETOCONAZOLE] |  |  |  |  |  |  |  |  |  |  |  |  |  |  |  | 33 | 31 | 29 | 30 | 1 (≈ 1.88 µM) | MIC (Aspergillus clavatus [21]): 1 µg/mL (≈ 1.88 µM); MIC (Aspergillus niger [22]): ≤ 3 µg/mL; MIC (Aspergillus fumigatus [24]): 1 µg/mL (≈ 1.88 µM) |
